From patent US20240383904A1, “HETEROCYCLIC COMPOUNDS” (Hoffmann-La Roche Inc., priority 2021, published 2024) come the findings set out here.

This assay deals with T1, MAGL (Homo sapiens, UniProt Q99685).
T1 sequence (Q99685 1-303): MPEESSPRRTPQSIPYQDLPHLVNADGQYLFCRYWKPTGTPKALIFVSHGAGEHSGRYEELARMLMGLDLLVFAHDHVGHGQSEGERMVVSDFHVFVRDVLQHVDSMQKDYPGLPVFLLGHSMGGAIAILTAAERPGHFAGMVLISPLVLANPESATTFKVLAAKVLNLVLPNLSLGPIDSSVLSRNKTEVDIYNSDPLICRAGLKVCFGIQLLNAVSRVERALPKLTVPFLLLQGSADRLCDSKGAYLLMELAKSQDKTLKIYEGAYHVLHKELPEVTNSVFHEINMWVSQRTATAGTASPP
As to the kind of experiment: 2-AG assay: MAGL inhibitory activity by hydrolysis of 2-arachidonoylglycerol to arachidonic acid, followed by mass spectrometry. Format: biochemical. The conditions noted are these: 15 min preincubation, 30 min reaction at RT, 8 μM 2-arachidonoylglycerol.
The compound `O=C1NC2(CO1)CN(C(=O)N1CC3(CC(N4CC(C(F)(F)F)C4)C3)C1)C2` [Example 80, 2-[6-[3-(trifluoromethyl)azetidin-1-y1]-2-azaspiro[3.3]heptane-2-carbonyl]-7-oxa-2,5-diazaspiro[3.4]octan-6-one] returned an IC50 of 6.19 nM. As for `O=C1NC2(CO1)CN(C(=O)N1CC3(CC(N4CC(CC(F)(F)F)C4)C3)C1)C2` [Example 81, 2-[6-[3-(2,2,2-trifluoroethyl)azetidin-1-y1]-2-azaspiro[3.3]heptane-2-carbonyl]-7-oxa-2,5-diazaspiro[3.4]octan-6-one], the figure is 7.62 nM; as for `O=C1CCC2(CN(C(=O)N3CC4(CCN(Cc5ccc(S(=O)(=O)C(F)(F)F)cc5)CC4)C3)C2)N1` [Example 82, 2-[7-(4-triflylbenzyl)-2,7-diazaspiro[3.5]nonane-2-carbonyl]-2,5-diazaspiro[3.4]octan-6-one], 5.58 nM; as for `O=C1COCC2(CN(C(=O)N3CC4(CCN(Cc5ccc(S(=O)(=O)C(F)(F)F)cc5)CC4)C3)C2)N1` [Example 83, 2-[7-(4-triflylbenzyl)-2,7-diazaspiro[3.5]nonane-2-carbonyl]-8-oxa-2,5-diazaspiro[3.5]nonan-6-one], 24.2 nM.

Regarding `O=C1NC2(CO1)CN(C(=O)N1CC3(CCN(Cc4ccc(S(=O)(=O)C(F)(F)F)cc4)CC3)C1)C2` [Example 84, 2-[7-(4-triflylbenzyl)-2,7-diazaspiro[3.5]nonane-2-carbonyl]-7-oxa-2,5-diazaspiro[3.4]octan-6-one], the IC50 was determined as 0.99 nM. The same measure for `O=C1NC2(CO1)CN(C(=O)N1CC3(CN(Cc4ccc(S(=O)(=O)C(F)(F)F)cc4)C3)C1)C2` [Example 85, 2-[6-(4-triflylbenzyl)-2,6-diazaspiro[3.3]heptane-2-carbonyl]-7-oxa-2,5-diazaspiro[3.4]octan-6-one]: 0.94 nM.

In turn, `O=C1COCC2(CN(C(=O)N3CC4(C3)CN(S(=O)(=O)c3cccc(OC(F)(F)F)c3)C4)C2)N1` [Example 86, 2-[2-[3-(trifluoromethoxy)phenyl]sulfony1-2,6-diazaspiro[3.3]heptane-6-carbonyl]-8-oxa-2,5-diazaspiro[3.5]nonan-6-one] displayed an IC50 of 984 nM. As for `O=C1COCC2(CN(C(=O)N3CC4(CCC(Cc5ccc(C(F)(F)F)cn5)CC4)C3)C2)N1` [Example 87, 2-[7-[[5-(trifluoromethyl)-2-pyridyl]methyl]-2-azaspiro[3.5]nonane-2-carbonyl]-8-oxa-2,5-diazaspiro[3.5]nonan-6-one], the figure is 6.42 nM. `O=C1COCC2(CN(C(=O)N3CC4(CCC(OCC5(C(F)(F)F)CC5)CC4)C3)C2)N1` [Example 88, 2-[7-[[1-(trifluoromethyl)cyclopro-pyl]methoxy]-2-azaspiro[3.5]nonane-2-carbonyl]-8-oxa-2,5-diazaspiro[3.5]nonan-6-one] showed an IC50 of 13.5 nM. The compound `O=C1COCC2(CN(C(=O)N3CC4(CC(CNC5(C(F)(F)F)CC5)C4)C3)C2)N1` [Example 89, 2-[6-[[[1-(trifluoromethyl)cyclopro-pyl]amino]methyl]-2-azaspiro[3.3]heptane-2-carbonyl]-8-oxa-2,5-diazaspiro[3.5]nonan-6-one] gave an IC50 of 29.7 nM.

`O=C1CCC2(CN(C(=O)N3CCC4(CC3)CN(Cc3ccc(C(F)(F)F)cc3F)C4)C2)N1` [Example 90, 2-[2-[2-fluoro-4-(trifluoromethyl)benzyl]-2,7-diazaspiro[3.5]nonane-7-carbonyl]-2,5-diazaspiro[3.4]octan-6-one]: 19.1 nM corresponded to half-maximal inhibition (IC50). As for `O=C1NC2(CCO1)CN(C(=O)N1CCC3(CC1)CN(Cc1ccc(C(F)(F)F)cc1F)C3)C2` [Example 91, 2-[2-[2-fluoro-4-(trifluoromethyl)benzyl]-2,7-diazaspiro[3.5]nonane-7-carbonyl]-7-oxa-2,5-diazaspiro[3.5]nonan-6-one], the figure is 635 nM.

In turn, `O=C1NC2(CO1)CN(C(=O)N1CCC3(CC1)CN(Cc1ccc(C(F)(F)F)cc1F)C3)C2` [Example 92, 2-[2-[2-fluoro-4-(trifluoromethyl)benzyl]-2,7-diazaspiro[3.5]nonane-7-carbonyl]-7-oxa-2,5-diazaspiro[3.4]octan-6-one] came in with an IC50 of 0.65 nM.

The compound `O=C1NCC2(CN(C(=O)N3CCC4(CC3)CN(Cc3ccc(C(F)(F)F)cc3F)C4)C2)N1` [Example 93, 2-[2-[2-fluoro-4-(trifluoromethyl)benzyl]-2,7-diazaspiro[3.5]nonane-7-carbonyl]-2,5,7-triazaspiro[3.4]octan-6-one] came in with an IC50 of 142 nM. As for `O=C1NC2(CO1)CN(C(=O)N1CC3(CC(NCc4ccc(C(F)(F)F)cc4F)C3)C1)C2` [Example 94], the figure is 1.08 nM; as for `O=C1NC2(CO1)CN(C(=O)N1CC3(CCC(Nc4ccc(C(F)(F)F)cn4)CC3)C1)C2` [Example 95, 2-[7-[[5-(trifluoromethyl)-2-pyridyl]amino]-2-azaspiro[3.5]nonane-2-carbonyl]-7-oxa-2,5-diazaspiro[3.4]octan-6-one], 0.37 nM; as for `CN(c1cnc(C(F)(F)F)cn1)C1CCC2(CC1)CN(C(=O)N1CC3(COC(=O)N3)C1)C2` [Example 96, 2-[7-[methyl-[5-(trifluoromethyl)pyrazin-2-yl]amino]-2-azaspiro[3.5]nonane-2-carbonyl]-7-oxa-2,5-diazaspiro[3.4]octan-6-one], 1.88 nM. The same measure for `O=C1NC2(CO1)CN(C(=O)N1CC3(CCC(Cc4ccc(Cl)cn4)CC3)C1)C2` [Example 97, 2-[7-[(5-chloro-2-pyridyl)methyl]-2-azaspiro[3.5]nonane-2-carbonyl]-7-oxa-2,5-diazaspiro[3.4]octan-6-one]: 0.15 nM; for `O=C1NC2(CO1)CN(C(=O)N1CC3(CCC(Nc4cnc(C(F)(F)F)cn4)CC3)C1)C2` [Example 98, 2-[7-[[5-(trifluoromethyl)pyrazin-2-yl]amino]-2-azaspiro[3.5]nonane-2-carbonyl]-7-oxa-2,5-diazaspiro[3.4]octan-6-one]: 1.75 nM; for `CS(=O)(=O)c1cc(F)ccc1OC1CCC2(CC1)CN(C(=O)N1CC3(COC(=O)N3)C1)C2` [Example 99, 2-[7-(4-fluoro-2-mesyl-phenoxy)-2-azaspiro[3.5]nonane-2-carbonyl]-7-oxa-2,5-diazaspiro[3.4]octan-6-one]: 3.09 nM. `O=C1NC2(CO1)CN(C(=O)N1CC3(CCC(Cc4ccc(C(F)(F)F)nc4)CC3)C1)C2` [Example 101, 2-[7-[[6-(trifluoromethyl)-3-pyridyl]methyl]-2-azaspiro[3.5]nonane-2-carbonyl]-7-oxa-2,5-diazaspiro[3.4]octan-6-one] came in with an IC50 of 0.18 nM. In the case of `O=C1CCC2(CN(C(=O)N3CC4(CCC(Cc5cnc(C(F)(F)F)cn5)CC4)C3)C2)N1` [Example 102, 2-[7-[[5-(trifluoromethyl)pyrazin-2-yl]methyl]-2-azaspiro[3.5]nonane-2-carbonyl]-2,5-diazaspiro[3.4]octan-6-one], the IC50 was found to be 10.8 nM. The same measure for `O=C1NC2(CO1)CN(C(=O)N1CC3(CCC(Cc4ncc(F)cc4F)C3)C1)C2` (centres unmarked) [Example 103, 2-[6-[(3,5-difluoro-2-pyridyl)methyl]-2-azaspiro[3.4]octane-2-carbonyl]-7-oxa-2,5-diazaspiro[3.4]octan-6-one]: 0.28 nM.
